According to ChEMBL document CHEMBL5046296 (J Med Chem, 2022):
pIC50, pKi: −log10 of the molar value. In brackets after ≈: the same amount, converted by molar mass.

Columns and labels:
[1] = MRT in mouse at 2 mg/kg, iv; assay type: ADME, organism-based; settings: in vivo
Rattus norvegicus [2] = test: Analgesic activity in streptozotocin induced diabetic peripheral neuropathic mechanical allodynia in overnight fasted Sprague-Dawley rat model assessed as efficacy at 3 mg/kg, po measured at 5.5 hrs post dose; assay type: functional
Rattus norvegicus [3] = test: Analgesic activity in CCI induced thermal hyperalgesia Sprague-Dawley rat model assessed as efficacy at 0.3 mg/kg, po measured at 5.75 hrs post dose; assay type: functional
[4] = Oral bioavailability in monkey at 3 mg/kg; assay type: ADME, organism-based, Macaca mulatta; settings: rhesus monkey, in vivo
[5] = Cmax in rat at 3 mg/kg, po; assay type: ADME, organism-based; set-up: route oral, dose 3 mg/kg; settings: in vivo
[6] = biological target: Solute carrier organic anion transporter family member 1B1 (Homo sapiens, UniProt Q9Y6L6); test: Inhibition of OATP1B1 (unknown origin)
[7] = biological target: Hepatic sodium/bile acid cotransporter (Homo sapiens, UniProt Q14973); test: Inhibition of NTCP (unknown origin)
[8] = Protein binding in mouse plasma assessed as unbound fraction at 10 uM measured after 5 hrs by LC-MS/MS analysis; assay type: ADME, cell-free
Homo sapiens [9] = species: Homo sapiens; test: Inhibition of calcium channel (unknown origin) at 10 uM by electrophysiological method relative to control
[10] = Clearance in rat at 2 mg/kg, iv; assay type: ADME, organism-based; settings: in vivo
[11] = biological target: AP2-associated protein kinase 1 (Homo sapiens, UniProt Q2M2I8); test: Inhibition of GST-Xa tagged human AAK1 (30 to 330 residues) expresssed in bacteria using (5-FAM)-Aha-KEEQSQITSQVTGQIGWR-NH2 peptide as substrate incubated for 3 hrs in presence of ATP by electrophoretic analysis
[12] = Lipophilicity, log D of the compound at pH 7.4; assay type: physicochemical; settings: buffer
Rattus norvegicus [13] = test: Analgesic activity in streptozotocin induced diabetic peripheral neuropathic mechanical allodynia in overnight fasted Sprague-Dawley rat model assessed as efficacy at 0.3 mg/kg, po measured at 5.5 hrs post dose; assay type: functional
[14] = AUC (infinity) in monkey at 2 mg/kg, iv; assay type: ADME, organism-based, Macaca mulatta; set-up: time infinity, route intravenous, dose 2 mg/kg; settings: rhesus monkey, in vivo
[15] = AUC (infinity) in dog at 2 mg/kg, iv; assay type: ADME, organism-based, Canis lupus familiaris; set-up: time infinity, route intravenous, dose 2 mg/kg; settings: in vivo
[16] = Cmax in overnight fasted Sprague-Dawley rat plasma with streptozotocin induced diabetic peripheral neuropathic mechanical allodynia at 3 mg/kg, po measured at 5.5 hrs post dose; assay type: ADME, organism-based; set-up: route oral, time 5.5 hrs, dose 3 mg/kg
[17] = Displacement of 3H-LP-927443 from AAK1 in mouse brain membrane homogenate assessed as inhibition constant at 1 uM incubated for 1 hr by liquid scintillation counter analysis; assay type: cell membranes
[18] = Protein binding in rat plasma assessed as unbound fraction at 10 uM measured after 5 hrs by LC-MS/MS analysis; assay type: ADME, cell-free
Rattus norvegicus [19] = test: Analgesic activity in streptozotocin induced diabetic peripheral neuropathic mechanical allodynia in overnight fasted Sprague-Dawley rat model assessed as reduction in pain response at 1 mg/kg, po measured after 5.5 hrs post treatment; assay type: functional; set-up: scale not given: the % may be the effect or the level left
[20] = Metabolic stability in human liver microsomes assessed as half life; assay type: ADME, Microsome
[21] = Protein binding in cynomolgus monkey plasma assessed as unbound fraction at 10 uM incubated for 5 hrs by LC-MS/MS analysis; assay type: ADME, cell-free, Macaca fascicularis
[22] = Clearance in dog at 2 mg/kg, iv; assay type: ADME, organism-based, Canis lupus familiaris; settings: in vivo
[23] = Drug concentration in overnight fasted Sprague-Dawley rat spinal cord with streptozotocin induced diabetic peripheral neuropathic mechanical allodynia at 0.1 mg/kg, po measured at 5.5 hrs post dose; assay type: ADME, organism-based; settings: read-out: Ct
[24] = Metabolic stability in mouse liver microsomes assessed as CYP450-mediated metabolism by measuring parent compound remaining at 0.5 uM incubated for 10 mins in presence of NADPH by LC-MS/MS analysis; assay type: ADME; settings: read-out: Stability
[25] = Solubility of the compound in citrate at pH 4.4 using crystalline form of sample; assay type: physicochemical
Cytochrome P450 3A4 [26] = biological target: T1, Cytochrome P450 3A4 (Homo sapiens, UniProt P08684); test: Time dependent inhibition of CYP3A4 (unknown origin) using TST as substrate measured at 30 mins; assay type: ADME
[27] = Tmax in monkey at 3 mg/kg, po; assay type: ADME, organism-based, Macaca mulatta; settings: rhesus monkey, in vivo
[28] = Permeability of compound at pH 7.4 measured after 4 hrs by PAMPA assay; assay type: ADME; settings: read-out: permeability
[29] = Drug uptake in Spinal cord of CCI induced thermal hyperalgesia Sprague-Dawley rat model assessed as spinal occupancy at 0.1 mg/kg, po measured at 5.75 hrs post dose in presence of [3H]BMT-046091; assay type: ADME, organism-based; settings: in vivo
Rattus norvegicus [30] = test: Analgesic activity in CCI induced thermal hyperalgesia in Sprague-Dawley rat assessed as reversal of thermal hyperalgesia by measuring reduction in paw withdrawal latency at 1 mg/kg, po measured after 5.5 hrs by Hargreaves test relative to control; assay type: functional; set-up: scale not given: the % may be the effect or the level left
Rattus norvegicus [31] = test: Analgesic activity in streptozotocin induced diabetic peripheral neuropathic mechanical allodynia in overnight fasted Sprague-Dawley rat model assessed as reduction in pain response at 3 mg/kg, po measured after 5.5 hrs post treatment; assay type: functional; set-up: scale not given: the % may be the effect or the level left
[32] = Ratio of drug concentration in spinal cord to plasma of overnight fasted Sprague-Dawley rat model with streptozotocin induced diabetic peripheral neuropathic mechanical allodynia at 3 mg/kg, po measured at 5.5 hrs post dose; assay type: ADME, organism-based
[33] = Toxicity in naive Sprague-Dawley rat assessed as motor impairment at 3 to 30 mg/kg, po measured after 5 hrs by rotarod test; assay type: organism-based; settings: in vivo, dose 3-30 mg/kg
[34] = Apparent elimination half life in monkey at 2 mg/kg, iv; assay type: ADME, organism-based, Macaca mulatta; settings: rhesus monkey, in vivo, read-out: betat1/2(app) (converted)
Cytochrome P450 3A4 [35] = biological target: T1, Cytochrome P450 3A4; test: Time dependent inhibition of CYP3A4 (unknown origin) using TST as substrate measured at 5 mins; assay type: ADME
Rattus norvegicus [36] = test: Analgesic activity in streptozotocin induced diabetic peripheral neuropathic mechanical allodynia in overnight fasted Sprague-Dawley rat model assessed as efficacy at 0.1 mg/kg, po measured at 5.5 hrs post dose; assay type: functional
[37] = Metabolic stability in mouse liver microsomes assessed as half life; assay type: ADME, Microsome
[38] = Tmax in dog at 3 mg/kg, po; assay type: ADME, organism-based, Canis lupus familiaris; settings: in vivo
[39] = Cmax in Sprague-Dawley rat plasma with CCI induced thermal hyperalgesia at 0.3 mg/kg, po measured at 5.75 hrs post dose; assay type: ADME, organism-based; set-up: route oral, dose 0.3 mg/kg, time 5.75 hrs
[40] = Cmax in naive Sprague-Dawley rat plasma at 10 mg/kg, po measured at 5.25 hrs post dose; assay type: ADME, organism-based; set-up: route oral, dose 10 mg/kg, time 5.25 hrs
[41] = Cmax in overnight fasted Sprague-Dawley rat plasma with streptozotocin induced diabetic peripheral neuropathic mechanical allodynia at 0.3 mg/kg, po measured at 5.5 hrs post dose; assay type: ADME, organism-based; set-up: route oral, time 5.5 hrs, dose 0.3 mg/kg
[42] = Solubility of the compound at pH 6.5 using crystalline form of sample; assay type: physicochemical
[43] = AUC (infinity) in rat at 2 mg/kg, iv; assay type: ADME, organism-based; set-up: time infinity, route intravenous, dose 2 mg/kg; settings: in vivo
[44] = biological target: Serine/threonine-protein kinase LATS2 (Homo sapiens, UniProt Q9NRM7); test: Inhibition of LATS2 (unknown origin)
[45] = Cmax in monkey at 3 mg/kg, po; assay type: ADME, organism-based, Macaca mulatta; set-up: route oral, dose 3 mg/kg; settings: rhesus monkey, in vivo
Cytochrome P450 3A4 [46] = biological target: T1, Cytochrome P450 3A4; test: Inhibition of CYP3A4 (unknown origin) using BFC as substrate; assay type: ADME
Homo sapiens [47] = species: Homo sapiens; test: Inhibition of sodium channel (unknown origin) at 10 uM at 4 Hz electrophysiological method relative to control
[48] = Permeability across apical to basolateral side in human Caco-2 cells at 3 uM measured after 2 hrs by LC-MS/MS analysis; assay type: ADME, cell-based; settings: read-out: permeability

T1 sequence (P08684 whole entry): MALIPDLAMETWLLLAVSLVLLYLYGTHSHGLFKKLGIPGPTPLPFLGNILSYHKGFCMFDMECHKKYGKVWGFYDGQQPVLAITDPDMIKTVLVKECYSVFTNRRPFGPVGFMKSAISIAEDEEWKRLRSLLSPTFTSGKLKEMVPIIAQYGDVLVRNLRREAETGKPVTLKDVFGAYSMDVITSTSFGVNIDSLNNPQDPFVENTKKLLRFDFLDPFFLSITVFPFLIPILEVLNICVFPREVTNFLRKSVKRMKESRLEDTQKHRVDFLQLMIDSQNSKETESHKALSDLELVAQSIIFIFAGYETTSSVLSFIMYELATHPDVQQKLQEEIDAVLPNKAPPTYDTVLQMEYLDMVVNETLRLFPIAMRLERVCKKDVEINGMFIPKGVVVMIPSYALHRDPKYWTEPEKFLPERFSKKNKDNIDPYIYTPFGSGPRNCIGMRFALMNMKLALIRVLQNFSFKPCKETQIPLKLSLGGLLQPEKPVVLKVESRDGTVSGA
Hepatic sodium/bile acid cotransporter, sequence (Q14973 whole entry): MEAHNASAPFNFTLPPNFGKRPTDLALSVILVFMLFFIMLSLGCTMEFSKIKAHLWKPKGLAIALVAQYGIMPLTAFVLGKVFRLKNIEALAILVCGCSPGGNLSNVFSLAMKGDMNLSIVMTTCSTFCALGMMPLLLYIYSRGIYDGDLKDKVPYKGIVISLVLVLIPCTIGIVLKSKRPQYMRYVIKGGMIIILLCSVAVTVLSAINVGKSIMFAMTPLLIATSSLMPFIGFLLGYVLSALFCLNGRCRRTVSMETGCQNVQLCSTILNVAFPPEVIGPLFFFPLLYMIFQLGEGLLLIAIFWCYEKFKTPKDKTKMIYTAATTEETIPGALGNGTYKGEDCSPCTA
Solute carrier organic anion transporter family member 1B1, sequence (Q9Y6L6 whole entry): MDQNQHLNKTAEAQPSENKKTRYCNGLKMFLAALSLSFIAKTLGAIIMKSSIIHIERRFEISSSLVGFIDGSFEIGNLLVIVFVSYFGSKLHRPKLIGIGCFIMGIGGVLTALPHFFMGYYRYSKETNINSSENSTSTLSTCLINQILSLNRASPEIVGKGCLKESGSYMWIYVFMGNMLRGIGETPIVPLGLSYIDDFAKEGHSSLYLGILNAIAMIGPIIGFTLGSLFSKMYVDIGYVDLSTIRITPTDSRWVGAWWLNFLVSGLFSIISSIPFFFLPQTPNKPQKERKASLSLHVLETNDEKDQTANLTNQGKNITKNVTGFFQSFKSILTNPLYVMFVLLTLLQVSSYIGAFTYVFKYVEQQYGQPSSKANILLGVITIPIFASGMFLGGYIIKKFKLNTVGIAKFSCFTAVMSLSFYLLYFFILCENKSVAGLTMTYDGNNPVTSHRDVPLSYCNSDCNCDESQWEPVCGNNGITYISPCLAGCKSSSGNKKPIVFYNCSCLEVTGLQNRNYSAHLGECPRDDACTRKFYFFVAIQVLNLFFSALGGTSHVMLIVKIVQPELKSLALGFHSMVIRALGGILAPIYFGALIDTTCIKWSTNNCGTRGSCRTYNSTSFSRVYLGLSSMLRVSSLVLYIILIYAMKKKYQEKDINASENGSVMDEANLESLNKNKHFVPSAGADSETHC
AP2-associated protein kinase 1, sequence (Q2M2I8 whole entry, the tested form may be a part): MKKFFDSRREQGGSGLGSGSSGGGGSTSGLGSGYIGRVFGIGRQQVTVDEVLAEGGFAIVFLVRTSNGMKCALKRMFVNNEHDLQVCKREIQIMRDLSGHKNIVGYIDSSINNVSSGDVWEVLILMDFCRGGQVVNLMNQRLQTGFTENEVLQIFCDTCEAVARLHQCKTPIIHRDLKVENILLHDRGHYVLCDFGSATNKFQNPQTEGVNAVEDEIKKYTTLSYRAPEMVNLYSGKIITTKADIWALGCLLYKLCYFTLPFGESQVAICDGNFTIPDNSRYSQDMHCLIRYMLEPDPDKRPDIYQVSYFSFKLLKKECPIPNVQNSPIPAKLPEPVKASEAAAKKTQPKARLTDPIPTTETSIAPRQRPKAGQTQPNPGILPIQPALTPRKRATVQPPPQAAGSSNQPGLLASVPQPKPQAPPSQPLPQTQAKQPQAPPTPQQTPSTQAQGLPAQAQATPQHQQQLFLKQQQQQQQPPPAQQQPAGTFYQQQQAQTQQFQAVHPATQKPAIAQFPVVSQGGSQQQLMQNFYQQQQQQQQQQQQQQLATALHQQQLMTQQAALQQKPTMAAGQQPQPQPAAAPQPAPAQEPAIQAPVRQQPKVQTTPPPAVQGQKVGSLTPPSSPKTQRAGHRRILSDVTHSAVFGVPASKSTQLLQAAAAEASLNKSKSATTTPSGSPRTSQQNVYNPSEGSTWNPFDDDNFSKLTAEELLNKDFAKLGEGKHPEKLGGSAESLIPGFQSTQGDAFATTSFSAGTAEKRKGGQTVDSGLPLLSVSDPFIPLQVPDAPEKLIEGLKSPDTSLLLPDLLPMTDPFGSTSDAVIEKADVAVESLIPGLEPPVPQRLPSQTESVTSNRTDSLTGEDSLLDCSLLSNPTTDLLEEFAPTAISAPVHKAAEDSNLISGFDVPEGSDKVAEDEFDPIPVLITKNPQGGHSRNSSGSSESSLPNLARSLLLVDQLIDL
Serine/threonine-protein kinase LATS2, sequence (Q9NRM7 whole entry): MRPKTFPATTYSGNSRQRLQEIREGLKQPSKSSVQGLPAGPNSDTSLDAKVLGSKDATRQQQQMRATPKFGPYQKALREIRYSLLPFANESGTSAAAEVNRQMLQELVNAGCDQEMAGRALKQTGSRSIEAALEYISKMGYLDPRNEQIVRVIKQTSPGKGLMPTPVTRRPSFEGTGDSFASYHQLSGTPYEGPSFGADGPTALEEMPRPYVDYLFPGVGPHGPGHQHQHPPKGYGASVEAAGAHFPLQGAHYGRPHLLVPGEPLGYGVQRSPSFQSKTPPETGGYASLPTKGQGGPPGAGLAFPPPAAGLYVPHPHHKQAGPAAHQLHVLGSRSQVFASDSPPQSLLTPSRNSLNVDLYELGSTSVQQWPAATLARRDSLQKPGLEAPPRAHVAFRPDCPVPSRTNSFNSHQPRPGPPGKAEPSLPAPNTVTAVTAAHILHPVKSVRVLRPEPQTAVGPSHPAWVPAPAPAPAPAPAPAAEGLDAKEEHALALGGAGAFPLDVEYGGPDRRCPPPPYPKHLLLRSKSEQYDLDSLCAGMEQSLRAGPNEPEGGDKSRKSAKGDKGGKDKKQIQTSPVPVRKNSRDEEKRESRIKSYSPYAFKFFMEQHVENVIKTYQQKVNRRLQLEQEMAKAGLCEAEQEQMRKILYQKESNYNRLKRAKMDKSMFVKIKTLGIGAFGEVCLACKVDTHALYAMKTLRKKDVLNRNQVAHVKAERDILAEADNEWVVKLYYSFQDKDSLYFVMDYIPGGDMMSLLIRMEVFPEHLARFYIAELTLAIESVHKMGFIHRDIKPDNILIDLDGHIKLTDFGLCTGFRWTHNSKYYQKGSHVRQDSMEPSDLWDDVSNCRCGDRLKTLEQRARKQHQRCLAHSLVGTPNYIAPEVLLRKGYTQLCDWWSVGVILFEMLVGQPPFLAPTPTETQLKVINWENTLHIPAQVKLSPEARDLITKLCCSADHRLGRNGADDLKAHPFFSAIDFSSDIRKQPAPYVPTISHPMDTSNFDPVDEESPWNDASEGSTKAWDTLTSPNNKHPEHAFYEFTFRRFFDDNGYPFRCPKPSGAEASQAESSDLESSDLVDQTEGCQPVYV

**Q.** For `CC(C)C[C@](C)(N)COc1ccc(-c2ccnc(C(F)F)c2)nc1C(F)F` [PILAVAPADIN], which MRT [1] is on record?
**A.** Its MRT is 63.8 h.

**Q.** What about the Efficacy (Rattus norvegicus [2]) of the same compound?
**A.** The Efficacy was 63%.

**Q.** What about the Efficacy (Rattus norvegicus [3]) of the same compound?
**A.** The Efficacy was 68%.

**Q.** What about the bioavailability [4] of the same compound?
**A.** The bioavailability was 11%.

**Q.** What about the Cmax [5] of the same compound?
**A.** Its Cmax is 60 ng/mL.

**Q.** What about the pIC50 [6] of the same compound?
**A.** Its pIC50 is under 4.52.

**Q.** What about the pIC50 [7] of the same compound?
**A.** The pIC50 was under 4.52.

**Q.** And the fraction unbound at 5 h, 10 µM [8]?
**A.** Its fraction unbound at 5 h, 10 µM is 0.046.

**Q.** What about the inhibition (Homo sapiens [9]) of the same compound?
**A.** The inhibition was 40%.

**Q.** What about the clearance [10] of the same compound?
**A.** The clearance was 28.5 mL/min/kg.

**Q.** What about the pIC50 [11] of the same compound?
**A.** The pIC50 was 8.70.

**Q.** And the logD [12]?
**A.** The logD was 1.48.

**Q.** And the Efficacy (Rattus norvegicus [13])?
**A.** Its Efficacy is 20%.

**Q.** And the AUC(0-inf) [14]?
**A.** The AUC(0-inf) was 980 ng·h/mL.

**Q.** What about the AUC(0-inf) [15] of the same compound?
**A.** Its AUC(0-inf) is 1210 ng·h/mL.

**Q.** And the Cmax [16]?
**A.** Its Cmax is 366 nM.

**Q.** What about the pKi [17] of the same compound?
**A.** Its pKi is 9.51.

**Q.** And the fraction unbound at 5 h, 10 µM [18]?
**A.** The fraction unbound at 5 h, 10 µM was 0.1.

**Q.** What about the Activity (Rattus norvegicus [19]) of the same compound?
**A.** The Activity was over 60%.

**Q.** And the half-life [20]?
**A.** Its half-life is over 2 h.

**Q.** And the fraction unbound at 5 h, 10 µM [21]?
**A.** The fraction unbound at 5 h, 10 µM was 0.053.

**Q.** And the clearance [22]?
**A.** Its clearance is 28.5 mL/min/kg.

**Q.** And the concentration at 5.5 h [23]?
**A.** The concentration at 5.5 h was 75 nM.

**Q.** And the remaining at 10 min, 0.5 µM [24]?
**A.** The remaining at 10 min, 0.5 µM was 86%.

**Q.** And the solubility [25]?
**A.** Its solubility is 1400 µg/mL (≈ 3630 µM).

**Q.** What about the pIC50 (Cytochrome P450 3A4 [26]) of the same compound?
**A.** Its pIC50 is under 4.40.

**Q.** And the Tmax [27]?
**A.** Its Tmax is 4 h.

**Q.** And the Papp at 4 h [28]?
**A.** The Papp at 4 h was 72.4 ×10⁻⁶ cm/s.

**Q.** And the Occ [29]?
**A.** Its Occ is 37%.

**Q.** And the Activity (Rattus norvegicus [30])?
**A.** Its Activity is 97%.

**Q.** And the Activity (Rattus norvegicus [31])?
**A.** The Activity was 60%.

**Q.** What about the Kp at 5.5 h [32] of the same compound?
**A.** The Kp at 5.5 h was 7.

**Q.** And the Activity [33]?
**A.** The Activity was “Non-Toxic”.

**Q.** And the half-life [34]?
**A.** Its half-life is 5.7 h.

**Q.** And the pIC50 (Cytochrome P450 3A4 [35])?
**A.** The pIC50 was under 4.40.

**Q.** What about the Efficacy (Rattus norvegicus [36]) of the same compound?
**A.** Its Efficacy is 20%.

**Q.** And the half-life [37]?
**A.** Its half-life is over 2 h.

**Q.** What about the Tmax [38] of the same compound?
**A.** Its Tmax is 1.3 h.

**Q.** What about the Cmax [39] of the same compound?
**A.** Its Cmax is 19 nM.

**Q.** What about the Cmax [40] of the same compound?
**A.** The Cmax was 780 nM.

**Q.** What about the Cmax [41] of the same compound?
**A.** Its Cmax is 25 nM.

**Q.** And the solubility thermodynamic [42]?
**A.** The solubility thermodynamic was 440 µg/mL (≈ 1140 µM).

**Q.** And the AUC(0-inf) [43]?
**A.** The AUC(0-inf) was 1180 ng·h/mL.

**Q.** And the pIC50 [44]?
**A.** Its pIC50 is 6.18.

**Q.** What about the Cmax [45] of the same compound?
**A.** Its Cmax is 20 ng/mL.

**Q.** What about the pIC50 (Cytochrome P450 3A4 [46]) of the same compound?
**A.** The pIC50 was under 4.70.

**Q.** What about the inhibition (Homo sapiens [47]) of the same compound?
**A.** Its inhibition is 61%.

**Q.** And the Papp A→B at 2 h, 3 µM [48]?
**A.** The Papp A→B at 2 h, 3 µM was 19.9 ×10⁻⁶ cm/s.
